Test results published in patent US11745001B2, “Therapeutic bandage” (University of Connecticut, priority 2020, dated 2023).

From the text: FIG. 4A illustrates a microneedle base 44 showing the hollow channel 50. FIG. 4B illustrates the microneedle base 44 coupled to the rapid-dissolving tips 40, which include tattoo ink. In one embodiment, the therapeutic bandage 10 may be producing the microneedles 26 and then coupling the microneedles 26 to the bandage matrix 30. In some embodiments, the microneedles 26 may be integrally formed with a portion of the bandage matrix 30. The microneedles are produced by forming the base 44, with the microchannel 50, and loading the base […] with the second immunomodulatory compound. The tip 40 is then produced and loaded with the first immunomodulatory compound. The tip 40 is then coupled to the base 44 to seal the microchannel […]. To test the mechanical strength of the microneedles 26, the tips 40 were loaded with insoluble tattoo ink (FIG. 4B). The microneedles 26 were then applied to cultured human skin explants using a 1 Newton application force. […] FIG. 4E illustrates a longitudinal section of explanted human skin showing spacing of microneedle deposition in the dermal layer. The kinetics of drug release were then measured using epifluorescence microscopy and two fluorescent dyes.

diffusion radius compared with the tip dye: approximately equal diffusion radius
release of red fluorescence from the microneedle base: after about one hour
visibility of dye: barely visible
SMILES: CCN(CC)c1ccc2c(-c3ccc(S(=O)(=O)O)cc3S(=O)(=O)[O-])c3ccc(=[N+](CC)CC)cc-3oc2c1 [sulforhodamine B]
